Results on five compounds are retold here after ChEMBL document CHEMBL2074246, “Distinct groups of multidrug resistance modulating agents are distinguished by competition of P-glycoprotein-specific antibodies” (Biochem Biophys Res Commun, 2004).

Each structure is given as a SMILES string.

What all share (format): functional, cell-based
For series [1], the target named is T1, ATP-dependent translocase ABCB1 (Homo sapiens, UniProt P08183). Briefly: TP_TRANSPORTER: increase in Calcein-AM intracellular accumulation (Calcein-AM: 0.5 uM, Oligomycin: 5 uM) in MDR1-expressing NIH-3T3 cells. To be noted: mouse, nih3t3, 5 µM.
T1 sequence (P08183 whole entry): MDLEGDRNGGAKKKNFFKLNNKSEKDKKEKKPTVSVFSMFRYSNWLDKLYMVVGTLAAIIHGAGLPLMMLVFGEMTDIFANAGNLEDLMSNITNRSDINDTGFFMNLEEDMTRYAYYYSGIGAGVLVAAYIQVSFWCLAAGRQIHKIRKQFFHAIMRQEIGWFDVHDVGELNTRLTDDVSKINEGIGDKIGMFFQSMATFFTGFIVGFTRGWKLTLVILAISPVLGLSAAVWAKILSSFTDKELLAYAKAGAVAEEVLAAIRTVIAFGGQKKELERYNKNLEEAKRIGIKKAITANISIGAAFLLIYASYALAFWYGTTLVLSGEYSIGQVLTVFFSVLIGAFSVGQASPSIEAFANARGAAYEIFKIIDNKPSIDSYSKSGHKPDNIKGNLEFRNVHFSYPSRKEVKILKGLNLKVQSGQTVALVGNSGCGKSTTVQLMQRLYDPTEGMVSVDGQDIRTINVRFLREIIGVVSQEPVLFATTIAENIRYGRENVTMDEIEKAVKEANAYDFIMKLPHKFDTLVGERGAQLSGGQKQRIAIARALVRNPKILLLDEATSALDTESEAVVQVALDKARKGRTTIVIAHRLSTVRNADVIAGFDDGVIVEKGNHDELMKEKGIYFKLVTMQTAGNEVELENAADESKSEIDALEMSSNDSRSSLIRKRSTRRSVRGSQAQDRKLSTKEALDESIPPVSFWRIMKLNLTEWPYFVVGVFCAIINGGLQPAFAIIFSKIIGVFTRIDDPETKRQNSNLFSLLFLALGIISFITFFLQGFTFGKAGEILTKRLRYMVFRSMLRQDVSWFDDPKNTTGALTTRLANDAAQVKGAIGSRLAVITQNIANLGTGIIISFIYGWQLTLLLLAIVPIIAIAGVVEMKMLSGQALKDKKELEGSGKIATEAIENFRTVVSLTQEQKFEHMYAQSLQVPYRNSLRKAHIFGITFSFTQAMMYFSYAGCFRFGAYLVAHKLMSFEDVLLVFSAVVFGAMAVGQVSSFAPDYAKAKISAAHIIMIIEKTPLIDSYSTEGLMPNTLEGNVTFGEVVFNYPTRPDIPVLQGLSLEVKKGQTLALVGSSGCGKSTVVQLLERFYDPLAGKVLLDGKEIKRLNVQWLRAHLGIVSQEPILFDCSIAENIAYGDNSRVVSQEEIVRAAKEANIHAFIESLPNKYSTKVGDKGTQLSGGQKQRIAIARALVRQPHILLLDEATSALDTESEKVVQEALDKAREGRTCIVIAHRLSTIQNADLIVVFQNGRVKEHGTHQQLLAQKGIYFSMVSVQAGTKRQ
Series [2] concerns the target T1, ATP-dependent translocase ABCB1. Briefly: TP_TRANSPORTER: increase in Calcein-AM intracellular accumulation (Calcein-AM: 0.5 uM, Taxol: 20 uM) in MDR1-expressing NIH-3T3 cells. The note with it: mouse, nih3t3, 20 µM.
For series [3] the target is unchanged. Briefly: TP_TRANSPORTER: increase in Calcein-AM intracellular accumulation (Calcein-AM: 0.5 uM, Prazosin: 10 uM) in MDR1-expressing NIH-3T3 cells. To be noted: mouse, nih3t3, 10 µM.
For series [4] the target is unchanged. Briefly: TP_TRANSPORTER: increase in Calcein-AM intracellular accumulation (Calcein-AM: 0.5 uM, Puromycin: 20 uM) in MDR1-expressing NIH-3T3 cells. The note with it: mouse, nih3t3, 20 µM.
Series [5] shares this target. Briefly: TP_TRANSPORTER: increase in Calcein-AM intracellular accumulation (Calcein-AM: 0.5 uM, Vincristine: 200 uM) in MDR1-expressing NIH-3T3 cells. The note with it: mouse, nih3t3, 200 µM.

For `CC[C@H]1/C=C/C=C/C[C@@H](C)[C@H](O)[C@@](C)(O)C(=O)[C@@H](C)[C@H](O)[C@@H](C)C(=O)[C@@H](C)[C@H](O)[C@@H](C)/C=C/C(=O)O[C@@H]2[C@H](C)[C@H](CC1)O[C@]1(CC[C@H](C)[C@H](C[C@@H](C)O)O1)[C@H]2C` [OLIGOMYCIN], the Activity result in series [1] was “is not an inhibitor [-]”.
For `CC(=O)O[C@H]1C(=O)[C@@]2(C)[C@H]([C@H](OC(=O)c3ccccc3)[C@]3(O)C[C@H](OC(=O)[C@H](O)[C@@H](NC(=O)c4ccccc4)c4ccccc4)C(C)=C1C3(C)C)[C@]1(OC(C)=O)CO[C@@H]1C[C@@H]2O` [PACLITAXEL], the Activity entry in series [2] is “is not an inhibitor [-]”.
Turning to `COc1cc2nc(N3CCN(C(=O)c4ccco4)CC3)nc(N)c2cc1OC` [PRAZOSIN], the Activity entry in series [3] is “is not an inhibitor [-]”.
Consider `COc1ccc(C[C@H](N)C(=O)N[C@H]2[C@@H](O)[C@H](n3cnc4c(N(C)C)ncnc43)O[C@@H]2CO)cc1` [PUROMYCIN], for which the Activity result in series [4] is “is not an inhibitor [-]”.
Take `CC[C@]1(O)C[C@H]2CN(CCc3c([nH]c4ccccc34)[C@@](C(=O)OC)(c3cc4c(cc3OC)N(C=O)[C@H]3[C@@](O)(C(=O)OC)[C@H](OC(C)=O)[C@]5(CC)C=CCN6CC[C@]43[C@@H]65)C2)C1` [VINCRISTINE]: the Activity entry in series [5] was “is not an inhibitor [-]”.
